Test results as given in patent publication US12455279B2, “Personalized immunotherapy for rejuvenating activating and strengthening exhausted and dysfunctional T cells, reducing PD-1, and improving immune function” (priority 2018, dated 2025).
Entries after “also recorded” stand apart in the source; their conditions may differ. Where no end group is shown, it is not given here.

Legend:
[1] = test system: PD-1 expressing smaller non-proliferating CD3+ normal human T cells; experiment: PD-1 expression on smaller non-proliferating T cells (FSC/SSC gating), 1 Hr treatment; type: cell-based; settings: 10−8M; for % reduction in % of smaller T cells expressing PD-1: vs untreated
Protocol: (§1) Peripheral blood lymphocytes (PBLs) were separated from normal human leukocytes of healthy donors by Ficol separation and CD3 positive T cells were separated by anti-CD3 antibody-coupled magnetic beads. The CD3+ T cells were cultured in RPMI 1640 medium supplemented with 10% heat inactivated fetal calf serum (FCS), 1% L-Glutamine, 1% sodium pyruvate, 1% non-essential amino acids, and 1% antibiotics. The cells were usually maintained for, for on average 24 hours after their separation before various molecules were added and their effects on the T cells were measured. […] It was therefore tested if neurotransmitters, neuropeptides, and/or modulators of voltage-gated ion channels can reduce PD-1 on the cell surface of T cells. Such a reduction would allow the T cells to escape the tumor-induced T cell suppression, and the activated T cells could then attach the cancer cells. As such, the expression of PD-1 on the surface of these treated and untreated T cells was monitored. […] Shorter in vitro incubation times are frequently preferable when cells are going to subsequently be returned to a subject, as they end to decrease the risk of an adverse reaction.
(§2) CD3 positive T cells of patients are a heterogenous mix of different types of T cells. […] Using this FCS and SSC analysis, T cells can be distinguished and separated by size into large proliferating T cells and smaller non-proliferating T cells.

[2] = test system: PD-1 expressing CD3+ normal human T cells; experiment: PD-1 surface expression on CD3+ T cells of healthy donors after treatment (1, 18, 24 Hr); type: cell-based; settings: for % reduction in % of T cells expressing PD-1: vs untreated
Protocol: as §1

[3] = test system: CD3+ T cells of liver cancer patients; experiment: Proliferation / big proliferating T cells / CD25 of CD3+ T cells of liver cancer patients; type: cell-based, human; design: % big/activated/proliferating T cells: concentration or dose not given beside the values; settings: for % big/activated/proliferating T cells / Fold increase (big/activated/proliferating T cells): T cells of liver cancer patient one; for % big/activated/proliferating T cells: 60 hours culture; for Fold increase (big/activated/proliferating T cells): vs untreated; for number of T cells present in culture (FIG. 1) / increase in the number of big, proliferating CD3 positive cells (ranking in words): patient one; for number of T cells present in culture (FIG. 1): 60 hours after administration; for increase in the number of big, proliferating CD3 positive cells (ranking in words): flow cytometer
Protocol: Blood was drawn from two patients suffering from liver cancer, patient one and patient two who both suffer from hepatocellular carcinoma. 15 mLs of blood yielded roughly 2.5×10^7 peripheral blood leucocytes, from which approximately […] positive T cells were isolated. The cells were cultured as described above, and the effects of various molecules and their combinations on those T cells were examined.
Cell proliferation was monitored in culture for 60 hours after administration of the molecule/s (FIG. 1).

[4] = test system: PD-1 expressing large proliferating CD3+ normal human T cells; experiment: PD-1 expression on large proliferating T cells (FSC/SSC gating), 1 Hr treatment; type: cell-based; settings: 10^−8M; for % reduction in % of large T cells expressing PD-1: vs untreated
Protocol: as §1, §2

| Molecule | % of smaller T cells expressing PD-1 [1] | % reduction in % of smaller T cells expressing PD-1 [1] | % of T cells expressing PD-1 ([2]; 1 Hr treatment, 10^−8M) | % reduction in % of T cells expressing PD-1 ([2]; 1 Hr treatment, 10^−8M) | % of T cells expressing PD-1 ([2]; 18 Hr treatment, 10^−7M) | % reduction in % of T cells expressing PD-1 ([2]; 18 Hr treatment, 10^−7M) | % of T cells expressing PD-1 ([2]; 24 Hr treatment, 10^−7M) | % reduction in % of T cells expressing PD-1 ([2]; 24 Hr treatment, 10^−7M) | % of T cells expressing PD-1 ([2]; 24 Hr treatment, 10^−8M) | % reduction in % of T cells expressing PD-1 ([2]; 24 Hr treatment, 10^−8M) | effect on PD-1 expressing T cells ([2]; incubated for 24 hours) | % big/activated/proliferating T cells [3] | Fold increase (big/activated/proliferating T cells) [3] | number of T cells present in culture (FIG. 1) [3] | % of large T cells expressing PD-1 [4] | % reduction in % of large T cells expressing PD-1 [4] | increase in the number of big, proliferating CD3 positive cells (ranking in words) [3] | surface expression of CD25 (FIG. 2D) ([3]; T cells of patient one) |
| --- | --- | --- | --- | --- | --- | --- | --- | --- | --- | --- | --- | --- | --- | --- | --- | --- | --- | --- |
| NCCc1ccc(O)c(O)c1 [Dopamine] | 40.4% | 8.0% | 30.3% | 17% | 24.90% | 28.40% | 10% | 51.05% | 22.4% | −9.64% | did not have a positive effect | 14% | 3-fold | increased the number of T cells present in culture; also recorded: most effective | 19.1% | 11.2% | – | – |
| N[C@@H](CCC(=O)O)C(=O)O [Glutamate] | 32.8% | 25.3% | 24.65% | 33% | 23.70% | 31.7% | 15.8% | 22.64% | 16.3% | 20.2% | – | 24.80% | 5.4-fold | increased the number of T cells present in culture; also recorded: most effective | 13.0% | 39.5% | most effective | – |
| CN[C@@H]1Cc2cccc3[nH]c(=O)n(c23)C1 [Sumanirole] | 36.2% | 17.5% | 25.65% | 30% | 26.15% | 24.64% | 16.4% | 19.71% | 16% | 21.66% | – | – | – | – | 13.6% | 36.7% | – | – |
| CGRP | 35.9% | 18.2% | – | – | – | – | – | – | – | – | – | 19.20% | 4.3-fold | increased the number of T cells present in culture | 16.5% | 23.3% | – | – |
| GnRH-I: neuropeptide (QHWSYGLRPG; ends and bridges not checked; UniProt P01148 24-33, looked up) | 36.6% | 16.6% | 34.27% | 6% | – | – | – | – | – | – | – | – | – | – | 16.1% | 25.1% | – | – |
| Neuropeptide Y: neuropeptide | – | – | – | – | – | – | – | – | – | – | – | 16.40% | 3.6-fold | increased the number of T cells present in culture | – | – | – | – |
| GnRH-II: neuropeptide (peptide, UniProt O43555 24-120, looked up, Progonadoliberin-2, neuropeptide) Progonadoliberin-2: QHWSHGWYPGGKRALSSAQDPQNALRPPGRALDTAAGSPVQTAHGLPSDALAPLDDSMPWEGRTTAQWSLHRKRHLARTLLTAAREPRPAPPSSNKV | – | – | 31.6% | 14% | – | – | – | – | – | – | – | – | – | increased the number of T cells present in culture | 9.5% | 55.8% | most effective | increased the surface expression of CD25 |
